A short description of series [1]: HepG2 cytotoxicity (CellTiter-Glo). In kind it is cell-based. The following applies: human, HepG2 cells; 48 h of exposure. The protocol:
HepG2 is a human hepatoma commonly used in drug metabolism and hepatotoxicity studies.
HepG2 cells were seeded at a density of 7000 or 8000 cells/well in a 96-well plate. Twenty to twenty four hours later, cells were treated with test compound for 48 hours in 3-fold serial dilutions with a top test concentration of 50 or 150 μM. After the incubation, CellTiter-Glo reagent was added directly to the wells. The plate was shaken for 2 or 5 mins on a plate shaker then incubated at room temperature for a further 10 mins. Subsequently, 100 μL of the above solution was transferred to a white flat bottom opaque 96 well plate (or opaque-walled clear bottom plates taped with a white bottom seal) and luminescence recorded on a plate reader.

A short description of series [2]: Cassette pharmacokinetic study, intravenous. In kind it is in vivo, C57BL/6 mice. The following applies: mice, route not given (IV study 0.4 mg/kg); for Vd: male, C57BL/6, mouse, plasma, read-out: VSS. Here is the method: Cassette dosing is a technique primarily used in drug discovery efforts in non-clinical studies to collect pharmacokinetic data from multiple drug candidates in a single experiment.
C57BL/6 mice (21-22 g, 6-8 weeks, male, purchased from Jihui Laboratory Animal Co. LTD) were allowed access to food and water ad libitum throughout the in-life phase of the study. Mice were dosed intravenously (IV) with a cassette of 0.4 mg/kg of test compounds in 5% DMAC, 5% Solutol HS15 and 90% saline. At designated time points, the animals were restrained manually, and ˜110 μL of blood/time point was collected into pre-cooled EDTA-K2 tubes via the facial vein. Blood samples were centrifuged at 4° C. (2000 g, 5 min) to obtain plasma within 15 min after sample collection. Plasma samples were stored at approximately −70° C. until analysis. Samples were assayed for their levels of test compounds by LC/MS/MS using a Triple Quadruple (6500+) system operating in a positive electrospray ionisation mode.
The PK parameters of half-life (T1/2) and area under the curve (AUC) of the compounds were assessed following a single intravenous (IV) injection (0.4 mg/kg) in mice (male, C57BL/6).

A further series relates to Caco-2 cells. Kind of series: Caco2 assay. The following applies: 10 μM, 90 min. In kind it is in vitro ADME, human. Here is the method:
Caco-2 cells are a human colon epithelial cancer cell line used as a model of human intestinal absorption of drugs and other compounds. The compounds were assessed for their oral suitability in this assay, as compounds with good oral bioavailability likely evade efflux by pumps. The permeability coefficient (Papp) denotes the permeability of the drug through a monolayer of cells. Transport is assessed in both directions (apical to basolateral (A-B) and basolateral to apical (B-A)) across the cell monolayer to enable an efflux ratio to be determined which provides an indicator as to whether a compound undergoes active efflux.
Caco-2 cells were removed from an incubator and the cell monolayer was washed with HBSS buffer before the Transepithelial/transendothelial electrical resistance (TEER) was measured at room temperature. The transport experiment was started by adding 10 μM solution of test compounds in HBSS buffer containing luciferase yellow to the apical side. A sample from the apical chamber was taken at t=0 min. The volumes of the apical and basal sides were 400 μL and 800 μL respectively. The apical and basolateral plates were incubated at 37° C. for 90 min. After 90 min, the apical plate was separated from the basolateral plate and an aliquot from the basolateral side was transferred to an opaque plate for the determination of lucifer yellow concentration at t=90 min. The luciferase yellow concentration of each sample was measured by fluorimetry using excitation and emission wavelengths of 485 nm and 535 nm, respectively. Samples from the donor and receiver chambers were diluted with 0.4% DMSO in HBSS then mixed with ACN and either osalmid or imipramine, which were used as an IS in preparation for analysis by LC-MS/MS. Samples were then assayed for their levels of test compounds using an UPLC-MS/MS-29(API6500+) or an LC-MS/MS-014(API4000) instrument operating in a positive electrospray ionisation mode.

A further series concerns the target T1, hERG channel (Homo sapiens, UniProt Q12809).
T1 construct: expressed in transfected cells; host or cells: CHO
Kind of series: hERG assay (automated QPatch). The series is classed as cell-based. The following applies: CHO cells expressing hERG channels. The protocol:
A CHO cell line stably transfected with hERG cDNA and expressing hERG channels was used. Cells used in the QPatch all met the following criteria: under microscopy examination, the majority of cells in suspension were single and isolated, their viability was greater than 95%, cell density ranged between 3-8×10^6 cells/mL in the final suspension before applying to the QPatch stir chamber. Cells were used within 4 hours of harvesting. Whole-cell recordings were performed using automated QPatch (Sophion Bioscience, Denmark). The cells were voltage clamped at a holding potential of −80 mV. The hERG current was activated by depolarising at +20 mV for 5 seconds, after which the current was taken back to −50 mV for 2.5 seconds to remove the inactivation and observe the outward tail current. The maximum amount of tail current was used to determine hERG current amplitude.
In general terms: hERG is a cardiac potassium channel; its block is linked to QT prolongation.

A short description of series [3]: Dedicated pharmacokinetic study, single oral dose. The following applies: mice, route and dose not given; for half-life: C57BL/6, mouse, plasma, intravenous, 0.4 mg/kg. The series is classed as in vivo, C57BL/6 mice.
The next series deals with T2, CYP3A4 (Homo sapiens, UniProt P08684).
T2 construct: using human liver microsomes; from tissue; host or cells: human liver microsomes
Kind of series: CYP inhibition assay, CYP3A4. In kind it is in vitro ADME. The following applies: probe Midazolam (5 μM), human liver microsomes. The protocol:
In vitro CYP (cytochrome P450) enzyme inhibition studies predict a drug candidate's predisposition to inhibit cytochrome P450 enzymes. The cytochrome P450 (CYP) inhibition assay was run against CYP2D6 and CYP3A4 isoforms using human liver microsomes. For CYP2D6, the probe substrates was Bufaralol (10 μM) and the positive control was Quinidine (2.5 μM). Midazolam (5 μM) was chosen as the probe substrate for CYP3A4 and Ketocanazole (2.5 μM) was used as the positive control inhibitor. To increase the throughput of the assay, one concentration (10 μM) was tested. For analysis via LC-MS, internal standards of 1-OH-Bufuralol-maleate-[D9] for CYP2D6 and 1′-OH-Midazolam-13C3 for CYP3A4 were used.
For orientation: Liver microsomes are vesicles of endoplasmic reticulum, rich in cytochrome P450 enzymes.

T1 sequence (Q12809 whole entry): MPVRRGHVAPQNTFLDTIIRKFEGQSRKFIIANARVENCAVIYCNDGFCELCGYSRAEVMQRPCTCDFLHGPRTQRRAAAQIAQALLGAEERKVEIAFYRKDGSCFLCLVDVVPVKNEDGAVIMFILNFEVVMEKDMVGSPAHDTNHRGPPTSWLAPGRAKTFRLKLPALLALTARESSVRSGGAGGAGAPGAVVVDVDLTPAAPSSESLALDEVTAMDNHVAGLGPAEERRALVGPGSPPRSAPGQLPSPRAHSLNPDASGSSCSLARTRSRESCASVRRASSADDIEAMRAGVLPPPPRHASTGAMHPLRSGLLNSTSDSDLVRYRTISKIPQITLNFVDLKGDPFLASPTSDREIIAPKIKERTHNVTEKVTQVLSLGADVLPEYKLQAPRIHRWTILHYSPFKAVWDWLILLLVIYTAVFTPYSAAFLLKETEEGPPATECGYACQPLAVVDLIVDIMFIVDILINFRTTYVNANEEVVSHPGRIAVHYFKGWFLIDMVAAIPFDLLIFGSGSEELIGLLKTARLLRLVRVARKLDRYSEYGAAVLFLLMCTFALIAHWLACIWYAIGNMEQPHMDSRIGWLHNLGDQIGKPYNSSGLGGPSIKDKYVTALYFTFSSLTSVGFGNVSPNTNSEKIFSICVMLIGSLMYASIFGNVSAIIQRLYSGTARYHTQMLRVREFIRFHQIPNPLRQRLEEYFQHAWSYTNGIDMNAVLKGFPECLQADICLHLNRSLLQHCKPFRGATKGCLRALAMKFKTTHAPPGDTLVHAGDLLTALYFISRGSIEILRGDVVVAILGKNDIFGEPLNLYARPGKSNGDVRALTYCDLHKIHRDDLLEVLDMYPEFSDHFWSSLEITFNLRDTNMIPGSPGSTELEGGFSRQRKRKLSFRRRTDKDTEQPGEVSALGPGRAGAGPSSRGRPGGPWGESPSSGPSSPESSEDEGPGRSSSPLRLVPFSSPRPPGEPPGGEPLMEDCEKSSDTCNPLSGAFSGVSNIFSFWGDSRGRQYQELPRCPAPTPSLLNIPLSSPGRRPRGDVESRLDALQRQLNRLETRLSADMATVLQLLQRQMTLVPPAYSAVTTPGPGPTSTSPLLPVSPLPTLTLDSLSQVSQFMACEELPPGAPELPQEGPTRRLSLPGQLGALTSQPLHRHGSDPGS
T2 sequence (P08684 whole entry): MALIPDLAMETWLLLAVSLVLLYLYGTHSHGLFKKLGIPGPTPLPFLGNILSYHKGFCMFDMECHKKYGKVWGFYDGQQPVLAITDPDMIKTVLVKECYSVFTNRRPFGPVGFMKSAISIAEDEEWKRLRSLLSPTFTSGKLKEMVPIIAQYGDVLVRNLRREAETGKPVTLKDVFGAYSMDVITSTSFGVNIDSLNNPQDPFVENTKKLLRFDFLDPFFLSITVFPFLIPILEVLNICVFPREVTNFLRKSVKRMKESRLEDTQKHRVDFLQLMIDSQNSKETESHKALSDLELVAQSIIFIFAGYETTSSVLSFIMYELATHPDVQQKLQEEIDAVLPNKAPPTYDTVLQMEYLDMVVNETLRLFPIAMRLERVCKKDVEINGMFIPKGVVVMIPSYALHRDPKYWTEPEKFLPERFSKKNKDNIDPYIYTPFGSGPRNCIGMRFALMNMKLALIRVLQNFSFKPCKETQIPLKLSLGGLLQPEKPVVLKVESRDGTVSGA

As usually defined, the IC50 is the midpoint of a concentration-inhibition curve. A lower IC50 goes with higher potency. One may read the half-life as the time in which the quantity being followed falls by half. Low values mean fast loss, high ones slow loss. Usually inhibition stands for the change of the read-out against control, counted positive when it falls. On to `Cc1ccc(-c2cc(CN3CCC(F)(F)[C@H](N)C3)cc(NC(=O)c3cc(-c4ccccc4)ccn3)c2)cn1` [Compound 122], for which, in series [1], the IC50 at 48 h was 11.1 µM. For the same compound, in series [2], the Vd came out at 1.29 L/kg. Moreover, the “bioavailability indicated by the in vitro Caco2 study” value (“bioavailability indicated” below) with Caco-2 cells is reported as “good bioavailability”. On hERG channel, this compound gave an IC50 of 35.7 µM. In series [3], the half-life was 11.3 h. The inhibition at 10 µM on CYP3A4 was -15.4%.
With `Cc1cn(-c2cc(CN3CCC[C@H](N)C3)cc(NC(=O)c3cc(-c4ccccc4)ccn3)c2)cn1` [compound 29, (S)—N-(3-((3-aminopiperidin-1-yl)methyl)-5-(4-methyl-1H-imidazol-1-yl)phenyl)-4-phenylpicolinamide], it took 3.23 µM to reach half-maximal inhibition in series [1] (IC50 at 48 h). Also, in series [2], the “VSS” value amounted to 14.7 L/kg. The “bioavailability indicated” value in the series with Caco-2 cells is given as “good bioavailability”. Besides, half-maximal inhibition at hERG channel (IC50) was put at 2.85 µM. Besides, in series [3], the “T1/2” value came to 6.29 h. Also, the inhibition at 10 µM at CYP3A4 was 74%.
As for `Cc1cnc(C(=O)Nc2cc(CN3CCC(F)(F)[C@H](N)C3)cc(-c3ccc(C(F)(F)F)nc3)c2)cc1-c1ccccc1` [compound 131], in series [1], the IC50 at 48 h worked out at 109 µM. Besides, the Vd in series [2] worked out at 3.25 L/kg. Besides, in the series on Caco-2 cells, the “bioavailability indicated” value was “good bioavailability”. Also, it took 94.2 µM to reach half-maximal inhibition on hERG channel (IC50). In series [3], this compound gave a half-life of 19 h. The inhibition at 10 µM against CYP3A4 stood at 0.68%.

These data come from patent publication US20240124428A1, “HETEROCYCLIC INHIBITORS OF PCSK9” (CARDIO THERAPEUTICS PTY LTD, priority 2020, published 2024).
